Results as given in patent publication US20240287138A1, “CYCLIC PEPTIDES FOR INHIBITING TNF RECEPTOR 1 ACTIVITY” (Merck Sharp & Dohme LLC, priority 2023, published 2024).
Numbered stars: 1 amine (or outer) side, 2 acyl side, 3 side chain; on linkers, the order of the positions; unused ones are H or OH. Bridge positions count the residues as written; N and C are the ends. Square brackets hold non-standard residues; d marks the D form. Peptide text beside a SMILES is read from it. Phe(4-(4-Ac-piperazinyl)) = CC(=O)N1CCN(c2ccc(C[C@H](N)C(=O)O)cc2)CC1; Trp(βS-Me,7-OMe) = COc1cccc2c([C@H](C)[C@H](N)C(=O)O)c[nH]c12; Phe(4-SO2NH2) = N[C@@H](Cc1ccc(S(N)(=O)=O)cc1)C(=O)O; Trp(βS-Me) = C[C@@H](c1c[nH]c2ccccc12)[C@H](N)C(=O)O; Trp(7-CN) = N#Cc1cccc2c(C[C@H](N)C(=O)O)c[nH]c12; Trp(7-Cl) = N[C@@H](Cc1c[nH]c2c(Cl)cccc12)C(=O)O; Ala(pyrimidin-5-yl) = N[C@@H](Cc1cncnc1)C(=O)O; Phe(3-CONH2) = NC(=O)c1cccc(C[C@H](N)C(=O)O)c1; Phe(4-CONH2) = NC(=O)c1ccc(C[C@H](N)C(=O)O)cc1; Phe(4-COOH) = N[C@@H](Cc1ccc(C(=O)O)cc1)C(=O)O; 4Pal(3S-Me) = C[C@@H](c1ccncc1)[C@H](N)C(=O)O; Ala(4-Pyridazinyl) = N[C@@H](Cc1ccnnc1)C(=O)O; Trp(7-aza) = N[C@@H](Cc1c[nH]c2ncccc12)C(=O)O; Lys(Me3) = C[N+](C)(C)CCCC[C@H](N)C(=O)O; Pip(5R-OH) = O=C(O)[C@@H]1CC[C@@H](O)CN1; X1 = O=C([C@@H]1CC[C@H](N[*:1])C1)[*:2]; Pro(4R-NH2) = N[C@H]1CN[C@H](C(=O)O)C1; Pip(4-aza) = O=C(O)[C@@H]1CNCCN1; 4Pal = N[C@@H](Cc1ccncc1)C(=O)O; NMeE = CN[C@@H](CCC(=O)O)C(=O)O; dHyp = O=C(O)[C@H]1C[C@H](O)CN1; dNMeE = CN[C@H](CCC(=O)O)C(=O)O; Ahp(2) = CCCCC[C@H](N)C(=O)O; NMeS = CN[C@@H](CO)C(=O)O; Pip = O=C(O)[C@@H]1CCCCN1; αMeS = C[C@](N)(CO)C(=O)O; NMeA = CN[C@@H](C)C(=O)O; Nle = CCCC[C@H](N)C(=O)O; Sar = CNCC(=O)O

Target: T1, TNFα-induced NF-κB signal transduction pathway (TNFR1 signaling) in THP-1 cells (Homo sapiens, UniProt P19438)
T1 sequence (P19438 30-455): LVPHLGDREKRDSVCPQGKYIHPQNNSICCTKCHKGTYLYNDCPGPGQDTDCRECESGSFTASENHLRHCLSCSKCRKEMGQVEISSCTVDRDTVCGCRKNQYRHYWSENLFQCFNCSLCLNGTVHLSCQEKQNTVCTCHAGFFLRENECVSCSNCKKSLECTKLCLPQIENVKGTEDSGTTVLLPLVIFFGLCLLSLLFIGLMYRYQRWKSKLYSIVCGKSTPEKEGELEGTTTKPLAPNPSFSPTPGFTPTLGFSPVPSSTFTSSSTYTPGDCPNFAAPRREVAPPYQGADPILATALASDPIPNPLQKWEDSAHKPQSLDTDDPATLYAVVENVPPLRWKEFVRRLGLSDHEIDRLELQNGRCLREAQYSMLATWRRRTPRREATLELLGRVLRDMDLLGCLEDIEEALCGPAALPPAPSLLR
Assay: THP-1 Lucia NF-κB reporter cell assay, inhibition of TNFα-induced NF-κB signaling
Type: cell-based
Settings: THP-1 NF-κB Lucia reporter cells, 10 ng/mL TNFα, 16-18 h, secreted luciferase; read-out: THP-1 IC50
Method: C. Procedure for THP-1 Lucia NF-κB cells
The inhibition of TNFα-induced NF-κB signal transduction pathways was evaluated in THP-1 cells. THP-1 cells harboring NF-κB-inducible Lucia™ reporter gene (InvivoGen, cat. #thp1-nfkb) designed for monitoring NF-κB signal transduction pathway was employed to assess the inhibitory effect macrocyclic peptides on TNFR1 signaling. The cells were cultured in media containing RPMI 1640, 2 mM L-glutamine, 25 mM HEPES, 10% heat-inactivated fetal bovine serum with appropriate selection antibiotics. Assays were performed in media that was devoid of selection antibiotics. For profiling, 125 nL of peptides in DMSO (10 mM) were dispensed into Falcon® 384-well Optilux white/clear flat bottom TC-treated microtest microplate (Corning, cat. #353963) using Echo® 555. […] A suspension of 1 million cells/mL was dispensed at 20 μL/well in a 384-well plate to a density of 20,000 cells/well and pre-incubated with peptides at 37° C. for 1 h. Subsequently, 5 μL of TNF containing media (recombinant human TNFα; R&D Systems USA, cat. #210-TA-005/CF) or TNF-free media (for controls) was added to the wells. The final concentration of TNFα in the assay in 10 ng/mL. After o.n. incubation at 37° C. (16-18 h), 5 μL of supernatant was aspirated and transferred to a 384-well microplate (PerkinElmer, cat. #6007680) for measurement of secreted luciferase activity with 25 μL of QUANTI-Luc™ luminescence assay reagent (InvivoGen, cat. #rep-qlc1) in each well. The luminescence was measured in EnVision® Multimode Plate Reader (PerkinElmer). Dose response curves were analyzed using a 4-parameter logistic model to calculate IC50 values, reported in Table 2, using TIBCO® Spotfire® software employing appropriate Minimum and Maximum controls.

SMILES	IC50 [nM]
CCCC[C@@H]1NC(=O)CSC[C@@H](C(N)=O)NC(=O)[C@H]([C@@H](C)c2c[nH]c3c(OC)cccc23)NC(=O)CN(C)C(=O)[C@H](Cc2ccc(O)cc2)NC(=O)[C@H](Cc2ccc(C(=O)O)cc2)NC(=O)[C@](C)(CO)NC(=O)[C@H](Cc2c[nH]c3c(Cl)cccc23)NC(=O)[C@H](Cc2ccncc2)NC(=O)[C@H](CCC(=O)N(C)C)NC(=O)[C@H](CCC(=O)O)N(C)C(=O)[C@H](Cc2c[nH]c3ccccc23)NC(=O)[C@@H]2CNCCN2C(=O)[C@H](Cc2ccncc2)NC1=O [SEQ ID NO. 75] ({CH2CO}-[Nle][4Pal][Pip(4-aza)]W[NMeE]E(NMe2)[4Pal][Trp(7-Cl)][αMeS][Phe(4-COOH)]Y[Sar][Trp(βS-Me,7-OMe)]C-NH2; thioether N-14)	6.1
CCCC[C@@H]1NC(=O)CSC[C@@H](C(N)=O)NC(=O)[C@H]([C@@H](C)c2c[nH]c3c(OC)cccc23)NC(=O)CN(C)C(=O)[C@H](Cc2ccc(O)cc2)NC(=O)[C@H](Cc2ccc(C(=O)O)cc2)NC(=O)[C@](C)(CO)NC(=O)[C@H](Cc2c[nH]c3c(Cl)cccc23)NC(=O)[C@H](Cc2ccncc2)NC(=O)[C@H](CC(N)=O)NC(=O)[C@H](CCC(=O)O)N(C)C(=O)[C@H](Cc2c[nH]c3ncccc23)NC(=O)[C@@H]2CNCCN2C(=O)[C@H](Cc2cncnc2)NC1=O [SEQ ID NO. 65] ({CH2CO}-[Nle][Ala(pyrimidin-5-yl)][Pip(4-aza)][Trp(7-aza)][NMeE]N[4Pal][Trp(7-Cl)][αMeS][Phe(4-COOH)]Y[Sar][Trp(βS-Me,7-OMe)]C-NH2; thioether N-14)	4
C[C@@H](c1c[nH]c2ccccc12)[C@@H]1NC(=O)[C@H](CO)NC(=O)[C@H](Cc2ccc(O)cc2)NC(=O)[C@H](CCCCN)NC(=O)CSC[C@@H](C(N)=O)NC(=O)[C@H](Cc2c[nH]c3ccccc23)NC(=O)CN(C)C(=O)[C@H](Cc2ccc(O)cc2)NC(=O)[C@H](Cc2ccc(C(=O)O)cc2)NC(=O)[C@](C)(CO)NC(=O)[C@H](Cc2c[nH]c3ccccc23)NC(=O)[C@H](Cc2ccncc2)NC(=O)[C@H](CC(N)=O)NC(=O)[C@H](C)N(C)C1=O [SEQ ID NO. 36] ({CH2CO}-KYS[Trp(βS-Me)][NMeA]N[4Pal]W[αMeS][Phe(4-COOH)]Y[Sar]WC-NH2; thioether N-14)	2.2
CCCC[C@@H]1NC(=O)[C@@H]2CC[C@@H](C2)NC(=O)[C@H]([C@@H](C)c2c[nH]c3c(OC)cccc23)NC(=O)CN(C)C(=O)[C@H](Cc2ccc(N3CCN(C(C)=O)CC3)cc2)NC(=O)[C@H](Cc2ccc(C(=O)O)cc2)NC(=O)[C@](C)(CO)NC(=O)[C@H](Cc2c[nH]c3c(Cl)cccc23)NC(=O)[C@H](Cc2ccncc2)NC(=O)[C@H](CC(N)=O)NC(=O)[C@H](CCC(=O)O)N(C)C(=O)[C@H](Cc2c[nH]c3ccccc23)NC(=O)[C@@H]2CNCCN2C(=O)[C@H](Cc2ccncc2)NC1=O [SEQ ID NO. 63] (cyclo([4Pal][Trp(7-Cl)][αMeS][Phe(4-COOH)][Phe(4-(4-Ac-piperazinyl))][Sar][Trp(βS-Me,7-OMe)][X1][Nle][4Pal][Pip(4-aza)]W[NMeE]N))	1.2
CCCCC[C@@H]1NC(=O)[C@@H]2CC[C@@H](C2)NC(=O)[C@H]([C@@H](C)c2c[nH]c3c(OC)cccc23)NC(=O)CN(C)C(=O)[C@H](Cc2ccc(C(N)=O)cc2)NC(=O)[C@H](Cc2ccc(C(N)=O)cc2)NC(=O)[C@](C)(CO)NC(=O)[C@H](Cc2c[nH]c3c(C#N)cccc23)NC(=O)[C@H](Cc2ccc(C(=O)O)cc2)NC(=O)[C@H](CC(N)=O)NC(=O)[C@H]2C[C@H](O)CN2C(=O)[C@H](Cc2c[nH]c3ccccc23)NC(=O)[C@H](CC(=O)O)NC(=O)[C@H]([C@@H](C)c2ccncc2)NC1=O [SEQ ID NO. 55] (cyclo([Ahp(2)][4Pal(3S-Me)]DW[dHyp]N[Phe(4-COOH)][Trp(7-CN)][αMeS][Phe(4-CONH2)][Phe(4-CONH2)][Sar][Trp(βS-Me,7-OMe)][X1]))	1.3
COc1cccc2c([C@H](C)[C@@H]3NC(=O)CN(C)C(=O)[C@H](Cc4ccc(O)cc4)NC(=O)[C@H](Cc4ccc(C(=O)O)cc4)NC(=O)[C@](C)(CO)NC(=O)[C@H](Cc4c[nH]c5c(Cl)cccc45)NC(=O)[C@H](Cc4ccncc4)NC(=O)[C@H](CC(N)=O)NC(=O)[C@H](CCC(=O)O)N(C)C(=O)[C@H](Cc4c[nH]c5ccccc45)NC(=O)[C@@H]4CCCCN4C(=O)[C@H](Cc4ccncc4)NC(=O)[C@H](CCCC[N+](C)(C)C)NC(=O)[C@@H]4CC[C@@H](C4)NC3=O)c[nH]c12 [SEQ ID NO. 47] (cyclo([4Pal][Pip]W[NMeE]N[4Pal][Trp(7-Cl)][αMeS][Phe(4-COOH)]Y[Sar][Trp(βS-Me,7-OMe)][X1][Lys(Me3)]))	1.9
CCCC[C@@H]1NC(=O)CSC[C@@H](C(N)=O)NC(=O)[C@H]([C@@H](C)c2c[nH]c3c(OC)cccc23)NC(=O)CN(C)C(=O)[C@H](Cc2ccc(O)cc2)NC(=O)[C@H](Cc2ccc(C(=O)O)cc2)NC(=O)[C@](C)(CO)NC(=O)[C@H](Cc2c[nH]c3c(Cl)cccc23)NC(=O)[C@H](Cc2ccncc2)NC(=O)[C@H](CC(N)=O)NC(=O)[C@H](CCC(=O)O)N(C)C(=O)[C@H](Cc2c[nH]c3ncccc23)NC(=O)[C@@H]2C[C@@H](N)CN2C(=O)[C@H](Cc2ccncc2)NC1=O [SEQ ID NO. 125] ({CH2CO}-[Nle][4Pal][Pro(4R-NH2)][Trp(7-aza)][NMeE]N[4Pal][Trp(7-Cl)][αMeS][Phe(4-COOH)]Y[Sar][Trp(βS-Me,7-OMe)]C-NH2; thioether N-14)	4.1
CCCC[C@@H]1NC(=O)[C@@H]2CC[C@@H](C2)NC(=O)[C@H]([C@@H](C)c2c[nH]c3c(OC)cccc23)NC(=O)CN(C)C(=O)[C@H](Cc2ccc(C(=O)O)cc2)NC(=O)[C@H](Cc2ccc(C(N)=O)cc2)NC(=O)[C@](C)(CO)NC(=O)[C@H](Cc2c[nH]c3c(C#N)cccc23)NC(=O)[C@H](Cc2ccc(S(N)(=O)=O)cc2)NC(=O)[C@H](CC(N)=O)NC(=O)[C@@H](CCC(=O)O)N(C)C(=O)[C@H](Cc2c[nH]c3ncccc23)NC(=O)[C@@H]2CC[C@@H](O)CN2C(=O)[C@H](Cc2ccncc2)NC1=O [SEQ ID NO. 133] (cyclo([4Pal][Pip(5R-OH)][Trp(7-aza)][dNMeE]N[Phe(4-SO2NH2)][Trp(7-CN)][αMeS][Phe(4-CONH2)][Phe(4-COOH)][Sar][Trp(βS-Me,7-OMe)][X1][Nle]))	1.4
CCCC[C@@H]1NC(=O)CSC[C@@H](C(N)=O)NC(=O)[C@H]([C@@H](C)c2c[nH]c3c(OC)cccc23)NC(=O)CN(C)C(=O)[C@H](Cc2cccc(C(N)=O)c2)NC(=O)[C@H](Cc2ccc(C(=O)O)cc2)NC(=O)[C@](C)(CO)NC(=O)[C@H](Cc2c[nH]c3c(Cl)cccc23)NC(=O)[C@H](Cc2ccncc2)NC(=O)[C@H](CC(N)=O)NC(=O)[C@H](CCC(=O)O)N(C)C(=O)[C@H](Cc2c[nH]c3ccccc23)NC(=O)[C@H](CO)N(C)C(=O)[C@H](Cc2ccncc2)NC1=O [SEQ ID NO. 270] ({CH2CO}-[Nle][4Pal][NMeS]W[NMeE]N[4Pal][Trp(7-Cl)][αMeS][Phe(4-COOH)][Phe(3-CONH2)][Sar][Trp(βS-Me,7-OMe)]C-NH2; thioether N-14)	2.2
CCCC[C@@H]1NC(=O)[C@@H]2CC[C@@H](C2)NC(=O)[C@H]([C@@H](C)c2c[nH]c3c(OC)cccc23)NC(=O)CN(C)C(=O)[C@H](Cc2ccc(C(=O)O)cc2)NC(=O)[C@H](Cc2ccc(C(N)=O)cc2)NC(=O)[C@](C)(CO)NC(=O)[C@H](Cc2c[nH]c3c(Cl)cccc23)NC(=O)[C@H](Cc2ccc(C(=O)O)cc2)NC(=O)[C@H](CC(N)=O)NC(=O)[C@H]2C[C@H](O)CN2C(=O)[C@H](Cc2c[nH]c3ccccc23)NC(=O)[C@@H]2CC[C@@H](O)CN2C(=O)[C@H](Cc2ccnnc2)NC1=O [SEQ ID NO. 105] (cyclo(N[Phe(4-COOH)][Trp(7-Cl)][αMeS][Phe(4-CONH2)][Phe(4-COOH)][Sar][Trp(βS-Me,7-OMe)][X1][Nle][Ala(4-Pyridazinyl)][Pip(5R-OH)]W[dHyp]))	0.7
